Results taken from patent US9353119B2, “Composition for preventing and treating non-small cell lung cancer, containing pyrazino-triazine derivatives” (JW PHARMACEUTICAL CORPORATION, priority 2011, dated 2016).
Where a name gives a salt, the structure may show the parent alone. Read-outs that look alike come from different tables or passages of the source.

Columns and labels:
NCI-H1975 cells [1] = experiment: In vivo anticancer activity, NCI-H1975 xenograft (Experimental Example 5)
Description: From Day 11 (D11) to Day 22 (D22) after the transplantation, three groups of the NCI-H1975-transplanted mice were administered with a bisodium salt of the compound of Chemical Formula 2-2 or cisplatin as summarized in Table 9, below.
The mean volume of tumors before the experiment (mean starting tumor volume) was 118 mm^3

HCC827 = experiment: In vitro cell growth inhibition (CellTiter-Glo), HCC827; type: cell-based; conditions: Homo sapiens; HCC827, 72 hrs
Description: (§1) This experiment aims to evaluate the in vitro anticancer activity of the pyrazino-triazine derivative (Chemical Formula 1-1P) of the present invention in various NSCLC cell lines.
(§2) NSCLC cells lines were seeded at a density of 5×10^3 cells/well into 96-well plates. Compound 1-1P and the reference drug doxorubicin were serially diluted by ½ in the concentration range of from 0.001 μM to 1 μM and the cells in each well were treated with each dilution in duplicate, followed by incubation for 72 hours in a 37° C., 5% CO2 incubator. CellTiter-Glo® (Luminescent Cell Viability Assay, #G7573, Promega) was added in an amount of 100 μL to each well and shaken for 2 min to lyze the cells. After incubation for 10 min at room temperature (25° C.), luminescence from each well was on a luminometer (Envision (Perkinelmer).
(§3) The anticancer activity depending on the administration of Compound 1-1P was evaluated over seven different NSCLC cell lines by cell growth inhibition 50 (GI50), a concentration needed to reduce the growth of treated cells to half that of untreated cells, calculated according to the following formula. GI50=(50−(y1−((y1−y2)/(x1−x2))*x1)/((y1−y2)/(x1−x2))
(§4) x1, x2=50% cell kill or lethal concentrations
(§5) y1, y2=cell densities at 50% cell kill or lethal concentrations

PC6 = experiment: In vitro cell growth inhibition (CellTiter-Glo), PC6; type: cell-based; conditions: Homo sapiens, PC-6; PC6, 72 hrs
Description: as §1, §2, §3, §4, §5

NCI-H23 = experiment: In vitro cell growth inhibition (CellTiter-Glo), NCI-H23; type: cell-based; conditions: Homo sapiens; NCI-H23, 72 hrs
Description: as §1, §2, §3, §4, §5

A549 = experiment: In vitro cell growth inhibition (CellTiter-Glo), A549; type: cell-based; conditions: Homo sapiens; A549, 72 hrs
Description: as §1, §2, §3, §4, §5

NCI-H1650 = experiment: In vitro cell growth inhibition (CellTiter-Glo), NCI-H1650; type: cell-based; conditions: Homo sapiens; NCI-H1650, 72 hrs
Description: as §1, §2, §3, §4, §5

NCI-H1975 = experiment: In vitro cell growth inhibition (CellTiter-Glo), NCI-H1975; type: cell-based; conditions: Homo sapiens; NCI-H1975, 72 hrs
Description: as §1, §2, §3, §4, §5

NCI-H460 = experiment: In vitro cell growth inhibition (CellTiter-Glo), NCI-H460; type: cell-based; conditions: Homo sapiens; NCI-H460, 72 hrs
Description: as §1, §2, §3, §4, §5

NCI-H1975 cells [2] = experiment: In vivo anticancer activity, NCI-H1975 xenograft (Experimental Example 6); parameters: species or system Balb/c nude mice
Description: From Day 11 (D11) to Day 22 (D22) after the transplantation, five groups of the NCI-H1975-transplanted mice were administered with compounds 1-3 and 1-5 as summarized in Table 11, below.

NCI-H460 cells = type: in vivo, Balb/c nude mice; conditions: for TGI %: Table 7 summary, NCI-H460 (EGFR TKI resistant), Cpd 1-1 given TIW
Description: From Day 6 (D1) to […] (D12) after the transplantation, three groups of the NCI-H460-transplanted mice were administered with compound of Chemical Formula 1-1 or paclitaxel as summarized in Table 3, below.

HCC827 cells = experiment: In vivo anticancer activity, HCC827 xenograft (Experimental Example 3); conditions: for TGI %: Table 7 summary, HCC827 (EGFR TKI sensitive), dose not given; for MBL (%): D11
NCI-H1975 cells [3] = experiment: In vivo anticancer activity, NCI-H1975 xenograft (Experimental Example 1); parameters: species or system Balb/c nude mice; conditions: for TGI %: Table 7 summary, NCI-H1975 (EGFR TKI resistant)
Description: Measurements of body weights and tumor sizes were randomized for n=7 per group using in-house randomization software. The tumor size was calculated from measurements of the longest axis (length, m) and the shortest axis (width, m) according to the following formula: Tumor size (mm^3): Width (mm)×Width (mm)×Length (mm)/2
The anticancer activity depending on the administration was evaluated by tumor growth inhibition, (TGI, %) calculated according to the following formulas.
When the tumor size of the drug-administered group is larger than the initial tumor size: % TGI=100*(1−(tumor volumeDay X−tumor volumeInitial for treated group)/(tumor volumeDay X−tumor volumeInitial for Vehicle group))
When the tumor size of the drug-administered group is smaller than the initial tumor size: % TGI=100+100*(1−(Treated group tumor volumeDayX/Treated group tumor volumeinitial))
Herein, mortality indicated deaths resulting from drug administration.
Herein, maximum body weight loss (MBL) means the largest loss of body weight caused by drug administration and is an important factor for determining maximum tolerable dose (MTD). The change of body weight was expressed as percentage of the body weight just before drug administration (D1). As a rule, the dose at which 10% or more of the body weight was lost was determined as the MTD.

NCI-H1975 cells [4] = experiment: In vivo anticancer activity, NCI-H1975 xenograft (Experimental Example 8); parameters: species or system Balb/c nude mice; conditions: Group 2: 60 mg/kg IV BIW for 2 weeks
Description: From Day 11 (D11) to Day 22 (D22) after the transplantation, two groups of the NCI-H1975-transplanted mice were administered with compound 1-7 as summarized in Table 13, below.

[5] = Group 3: cisplatin 2.5 mg/kg IV BIW for 2 weeks
[6] = Group 2: 200 mg/kg IV QDx5 for 2 weeks
[7] = Group 2: 40 mg/kg IV QDx5 for 2 weeks
[8] = Group 3: paclitaxel 20 mg/kg ip (D1, 3, 5, 8, 10, 12)
[9] = Group 6: paclitaxel 10 mg/kg ip once per week, four injections
[10] = Group 6: paclitaxel 7.5 mg/kg ip once a week, two injections
[11] = Group 3: 30 mg/kg IV QDx5 for 2 weeks
[12] = Group 2: 1-1 150 mg/kg iv, six injections (D1, 3, 5, 8, 10, 12)
[13] = Group 2: 1-1 100 mg/kg iv once a day, 20 injections over four weeks
[14] = Group 3: 1-1 150 mg/kg iv once a day, 20 injections over four weeks
[15] = Group 2: 1-1 100 mg/kg iv once a day, ten injections (D8-12, 15-19)
[16] = Group 3: 1-1 150 mg/kg iv once a day, ten injections (D8-12, 15-19)

SMILES: N.N.[Cl][Pt][Cl] [Cisplatin, reference compound]
- Mortality (NCI-H1975 cells [1]; [5]): 0/6
- TGI % D22 (NCI-H1975 cells [1]; [5]): 23%
- Tumor size @D 22 (Mean ± S.E. mm^3) (NCI-H1975 cells [1]; [5]): 750 ± 53 mm^3

SMILES: C=CCN1CC(=O)N2[C@@H](Cc3ccc(O)cc3)C(=O)N(Cc3cccc4c(C(C)=O)cn(C)c34)C[C@@H]2N1C(=O)NCc1ccccc1 [Compound 1-1P]
- GI50 (HCC827): 115 nM
- GI50 (PC6): 493 nM
- GI50 (NCI-H23): 67 nM
- GI50 (A549): 372 nM
- GI50 (NCI-H1650): 156 nM
- GI50 (NCI-H1975): 111 nM
- GI50 (NCI-H460): 272 nM

SMILES: C[C@H]1[C@H]2N(C(=O)CN(C)N2C(=O)NCc2ccccc2)[C@@H](Cc2ccc(OP(=O)(O)O)cc2)C(=O)N1Cc1cccc2cccnc12 [2Na Salt of Cpd. 2-2]
- MBL (%) (NCI-H1975 cells [1]; [6]): no loss
- Mortality (NCI-H1975 cells [1]; [6]): 0/6
- TGI % D22 (NCI-H1975 cells [1]; [6]): 27%
- Tumor size @D 22 (Mean ± S.E. mm^3) (NCI-H1975 cells [1]; [6]): 720 ± 104 mm^3

SMILES: C=CCN1CC(=O)N2[C@@H](Cc3ccc(OP(=O)(O)O)cc3)C(=O)N(Cc3cccc4c(-c5ccc(C(=O)N6CCCCC6)cc5)cn(C)c34)C[C@@H]2N1C(=O)NCc1ccccc1 [Compound 1-3]
- Mortality (NCI-H1975 cells [2]; [7]): 0/6
- TGI % D22 (NCI-H1975 cells [2]; [7]): 62%
- Tumor size @D 22 (Mean ± S.E. mm^3) (NCI-H1975 cells [2]; [7]): 571 ± 38 mm^3
- MBL (%) (NCI-H1975 cells [2]; Group 2: 40 mg/kg IV QDx5 for 2 weeks, D19): 4 (D19) %

SMILES: CC(=O)O[C@H]1C(=O)[C@@]2(C)[C@H]([C@H](OC(=O)c3ccccc3)[C@]3(O)C[C@H](OC(=O)[C@H](O)[C@@H](NC(=O)c4ccccc4)c4ccccc4)C(C)=C1C3(C)C)[C@]1(OC(C)=O)CO[C@@H]1C[C@@H]2O [Paclitaxel, reference compound]
- Mortality (NCI-H460 cells; [8]): 0/6
- TGI % D12 (NCI-H460 cells; [8]): 15%
- Tumor size @D 12 (Mean ± S.E. mm^3) (NCI-H460 cells; [8]): 1339 ± 260 mm^3
- TGI % (NCI-H460 cells): >15%
- Mortality (HCC827 cells; [9]): 0/6
- TGI % D33 (HCC827 cells; [9]): 18%
- Tumor size @D 33 (Mean ± S.E. mm^3) (HCC827 cells; [9]): 557 ± 83 mm^3
- TGI % (HCC827 cells): >18%
- Mortality (NCI-H1975 cells [3]; [10]): 0/7
- TGI % D22 (NCI-H1975 cells [3]; [10]): 28%
- Tumor size @D 22) (Mean ± S.E. mm3) (NCI-H1975 cells [3]; [10]): 736 ± 79 mm3
- TGI % (NCI-H1975 cells [3]; dose not given): >30%

SMILES: C=CCN1CC(=O)N2[C@@H](Cc3ccc(OP(=O)(O)O)cc3)C(=O)N(Cc3cccc4c(C(=O)Nc5ccc(N(C)C)nc5)cn(C)c34)C[C@@H]2N1C(=O)NCc1ccccc1 [Compound 1-5]
- Mortality (NCI-H1975 cells [2]; [11]): 0/6
- TGI % D22 (NCI-H1975 cells [2]; [11]): 71%
- Tumor size @D 22 (Mean ± S.E. mm^3) (NCI-H1975 cells [2]; [11]): 464 ± 45 mm^3
- MBL (%) (NCI-H1975 cells [2]; Group 3: 30 mg/kg IV QDx5 for 2 weeks, D12): 5 (D12) %

SMILES: C=CCN1CC(=O)N2[C@@H](Cc3ccc(OP(=O)([O-])O)cc3)C(=O)N(Cc3cccc4c(C(C)=O)cn(C)c34)C[C@@H]2N1C(=O)NCc1ccccc1.[Na+] [Compound 1-1]
- Mortality (NCI-H460 cells; [12]): 0/6
- TGI % D12 (NCI-H460 cells; [12]): 25%
- Tumor size @D 12 (Mean ± S.E. mm^3) (NCI-H460 cells; [12]): 1196 ± 247 mm^3
- MBL (%) (NCI-H460 cells; Group 2: 1-1 150 mg/kg iv, six injections (D1, 3, 5, 8, 10, 12), @D2): 4 (@D2) %
- TGI % (NCI-H460 cells): 25%
- Mortality (HCC827 cells; [13]): 0/7
- TGI % D33 (HCC827 cells; [13]): 50%
- Tumor size @D 33 (Mean ± S.E. mm^3) (HCC827 cells; [13]): 380 ± 29 mm^3
- MBL (%) (HCC827 cells; [13]): 1 (D11) %
- Mortality (HCC827 cells; [14]): 0/7
- TGI % D33 (HCC827 cells; [14]): 68%
- Tumor size @D 33 (Mean ± S.E. mm^3) (HCC827 cells; [14]): 262 ± 30 mm^3
- MBL (%) (HCC827 cells; [14]): 1 (D11) %
- TGI % (HCC827 cells): 78%
- Tumor size on D22 compared with vehicle control (NCI-H1975 cells [3]; D22, dose not given): significantly reduced
- Mortality (NCI-H1975 cells [3]; [15]): 0/7
- TGI % D22 (NCI-H1975 cells [3]; [15]): 74%
- Tumor size @D 22) (Mean ± S.E. mm3) (NCI-H1975 cells [3]; [15]): 307 ± 97 mm3
- Mortality (NCI-H1975 cells [3]; [16]): 0/7
- TGI % D22 (NCI-H1975 cells [3]; [16]): 109%
- Tumor size @D 22) (Mean ± S.E. mm3) (NCI-H1975 cells [3]; [16]): 57 ± 22 mm3
- TGI % (NCI-H1975 cells [3]; dose not given): 100%

SMILES: C=CCN1CC(=O)N2[C@@H](Cc3ccc(O)cc3)C(=O)N(Cc3cccc4c(C(=O)Nc5ccc(NCCN6CCOCC6)nc5)cn(C)c34)C[C@@H]2N1C(=O)NCc1ccccc1.Cl [Compound 1-7]
- Mortality (NCI-H1975 cells [4]): 0/5
- TGI % D22 (NCI-H1975 cells [4]): 41%
- Tumor size @D 22 (Mean ± S.E. mm^3) (NCI-H1975 cells [4]): 410 mm^3
